Here are results for one molecule from patent US12427179B2, “Compositions and methods for diagnosis and treatment of neurodegenerative diseases” (EPITRACKER, INC., priority 2019, dated 2025).

Molecules are shown by their SMILES.

In assay [1] the test system is /Mphg: Macrophages, venular endothelial cells (TLR2 ligand). In words: BioMAP /Mphg system. The assay is classed as cell-based, human. Conditions: at the compound's active concentration. An excerpt: (§1) The Diversity PLUS panel allows test agent characterization in an unbiased way across a broad set of systems modeling various human disease states. These systems are designed to model complex human tissue and disease biology of the vasculature, skin, lung, and inflammatory tissues. Quantitative measurements of 148 biomarker activities across this broad panel, along with comparative analysis of biological activities from known bioactive agents, were used to predict and compare the efficacy and function of each selected compound at selected concentrations (6.7 and/or 20 μM).
(§2) BioMAP systems are constructed with one or more primary cell types from healthy human donors, with stimuli (such as cytokines or growth factors) added to capture relevant signaling networks that naturally occur in human tissue or pathological conditions. Vascular biology is modeled in both a Th1 (3C system) and a Th2 (4H system) inflammatory environment, as well as in a Th1 inflammatory state specific to arterial smooth muscle cells (CASM3C system). Additional systems recapitulate aspects of the systemic immune response including monocyte-driven Th1 inflammation (LPS system) or T cell stimulation (SAg system), chronic Th1 inflammation driven by macrophage activation (lMphg system) and the T cell-dependent activation of B cells that occurs in germinal centers (BT system). The BE3C system (Th1) and the BF4T system (Th2) represent airway inflammation of the lung, while the MyoF system models myofibroblast-lung tissue remodeling. Lastly, skin biology is addressed in the KF3CT system modeling Th1 cutaneous inflammation and the HDF3CGF system modeling wound healing.
(§3) Each test agent generates a signature BioMAP profile that is created from the changes in protein biomarker readouts within individual system environments. Biomarker readouts (7-17 per system) are selected for therapeutic and biological relevance, are predictive for disease outcomes or specific drug effects and are validated using agents with known mechanism of action (MoA). Each readout is measured quantitatively by immune-based methods that detect protein (e.g., ELISA) or functional assays that measure proliferation and viability. BioMAP readouts are diverse and include cell surface receptors, cytokines, chemokines, matrix molecules and enzymes. In total, the Diversity PLUS panel contains 148 biomarker readouts that capture biological changes that occur within the physiological context of the particular BioMAP system. […]
(§4) Activated BioMAP systems were incubated with each compound for 24 to 72 hours. Protein-based biomarkers from activated cell systems were measured and compared with non-treated control systems.

Assay [2] deals with BT: Peripheral blood mononuclear cells, B cells (α-IgM, TCR ligands). As to the kind of experiment: BioMAP BT system. The assay is classed as cell-based, human. Particulars: BT system; at the compound's active concentration. The procedure: Anti-inflammatory phenotypic profiling was conducted across 12 human primary cell-based systems as part of DiscoverX's BioMAP Diversity Plus program. These systems are designed to model complex human tissue and disease biology of the vasculature, skin, lung, and inflammatory tissues. Quantitative measurements of biomarker activities across this broad panel were used to assess each biochemical's anti-inflammatory activity at four concentrations ([…] and 2.2, 6.7 and 20 μM). […] Protein-based biomarkers from activated cell systems were measured and compared with controls. Biomarker activities were annotated when 2 or more consecutive concentrations change in the same directions relative to vehicle controls, were outside of the significance envelope and had at least one concentration with an effect size>20% (log 10 ratio)>0.1.
In the first system, human primary peripheral blood mononuclear cells and venular endothelial cells were stimulated with lipopolysaccharide (LPS) and incubated with the test agent, drug control, or vehicle control for 24 hours. In the second system, peripheral blood mononuclear cells and B cells were stimulated with α-IgM and T cell receptor ligands and incubated with the test agent, drug control, or vehicle control for 24 hours. In both systems, a negative, non-stimulated system was also included.
as §1, §2, §3

The subject of assay [3] is human primary cell-based systems. As to the kind of experiment: BioMAP Diversity PLUS panel, phenotypic profiling. Particulars: tested at 6.7 and/or 20 μM; 24 to 72 hours. As for the experimental part: Anti-inflammatory phenotypic profiling was conducted across 12 human primary cell-based systems as part of DiscoverX's BioMAP Diversity Plus program. These systems are designed to model complex human tissue and disease biology of the vasculature, skin, lung, and inflammatory tissues. Quantitative measurements of biomarker activities across this broad panel were used to assess each biochemical's anti-inflammatory activity at four concentrations ([…] and 2.2, 6.7 and 20 μM). […] Protein-based biomarkers from activated cell systems were measured and compared with controls.
as §1, §2
(§5) Each test agent generates a signature BioMAP profile that is created from the changes in protein biomarker readouts within individual system environments. Biomarker readouts (7-17 per system) are selected for therapeutic and biological relevance, are predictive for disease outcomes or specific drug effects and are validated using agents with known mechanism of action (MoA). Each readout is measured quantitatively by immune-based methods that detect protein (e.g., ELISA) or functional assays that measure proliferation and viability. BioMAP readouts are diverse and include cell surface receptors, cytokines, chemokines, matrix molecules and enzymes. In total, the Diversity PLUS panel contains 148 biomarker readouts that capture biological changes that occur within the physiological context of the particular BioMAP system.
as §4

The subject of assay [4] is BE3C: Bronchial epithelial cells (IL-1β, IFNγ, TNFα). In words: BioMAP BE3C system. The assay is classed as cell-based, human. Particulars: at the compound's active concentration.
Description: The Diversity PLUS panel allows test agent characterization in an unbiased way across a broad set of systems modeling various human disease states. These systems are designed to model complex human tissue and disease biology of the vasculature, skin, lung, and inflammatory tissues.
as §2
as §5, with “enzymes.” for “enzymes. In total, the Diversity PLUS panel contains 148 biomarker readouts that capture biological changes that occur within the physiological context of the particular BioMAP system.”
as §4

Regarding `O=C(O)CNC(=O)c1ccccc1` [hippurate], the “IL-8, log10 reduction vs nontreated controls” value in assay [1] is given as −0.12 log10. Also, the “Secreted IgG, log10 reduction vs nontreated controls” value in assay [2] was −0.21 log10. For the same molecule, the Active concentrations in assay [3] is 6.7 to 20 µM. In addition, in assay [4], the “MMP-1, log10 reduction vs nontreated controls” value is reported as −0.14 log10.
